Reference: PMC8778187, “A New Oxygen Containing Pyclen-Type Ligand as a Manganese(II) Binder for MRI and ^52Mn PET Applications: Equilibrium, Kinetic, Relaxometric, Structural and Radiochemical Studies” (Molecules, 2022)

Assay: 17O NMR and NMRD measurements (water exchange, rotation, hydration number)
Format: physicochemical
Description: The relaxivity of paramagnetic metal complexes is governed by several parameters, including the water exchange rate (kex), the rotational correlation time (τR), and the number of inner sphere water molecules (q). In order to obtain information for these parameters, temperature dependent ^17O NMR measurements (9.4 T) and nuclear magnetic relaxation dispersion (NMRD) experiments were carried out in the frequency range of 0.01–80 MHz, at 3 different temperatures (25, 37, and 50 °C). Since numerous physico-chemical parameters determine the relaxivity, the independent assessment of some of the parameters is essential for the correct characterization. The variable temperature ^17O NMR measurements can deliver information about kex and τR via the transverse (1/T2) and the longitudinal (1/T1) ^17O relaxation rates, respectively, while the ^17O chemical shifts (Δω) depend on q. Therefore, the transverse and longitudinal relaxation rates and chemical shifts for a [Mn(3,9-OPC2A)] complex and a diamagnetic reference sample (HClO4, pH = 3.3) have been determined in the aqueous solution.
The ^17O 1/T2r values and the NMRD data have been analyzed simultaneously by the Swift–Connick equations [31], as well as by the Solomon–Bloembergen–Morgan (SMB) and Freed models (see Supporting Information). In this calculation, the water exchange rate, kex^298; its activation enthalpy and entropy, ΔH^‡ and ΔS^‡; the rotational correlational time, τR; its activation energy, ER; the square of the zero-field splitting energy (ZFS), Δ^2; and the correlation time of its modulation, τv, have been determined and listed in Table 5, together with corresponding values of other complexes for comparison. As a result of the high number of parameters involved in the calculations, some have to be set to reasonable estimates based on literature data. Thus, the scalar coupling constant, A/ħO, is set to 33 × 10^6 rad s^−1, the distance between the metal ion, and the inner and outer sphere water protons are fixed to rMnH = 2.83 Å and aMnH = 3.6 Å, respectively; the diffusion coefficient and its activation energy are fixed to DMnH = 23 × 10^−10 m^2s^−1 and EMnH = 18 kJmol^−1, and the activation energy of the modulation of the zero-field-splitting, Ev to 1.0 kJmol^−1.
The hydration number has been fixed to q = 1, based on the relaxivity value measured at 20 MHz (r1 = 3.09 mM^−1s^−1), and on the value, 0.97 ± 0.2, determined for q using the method proposed by Gale et al..
A Bruker Avance 400 (9.4 T) spectrometer was used to measure the longitudinal (1/T1) and transverse (1/T2) relaxation rates, and the chemical shifts of an aqueous solution of the [Mn(3,9-OPC2A)] complex (pH = 7.4, 1.3 mM) and a diamagnetic reference (HClO4 acidified water, pH = 3.3) in the temperature range of 273–348 K. The temperature calibration was performed using literature protocols relying on ethylene glycol and methanol standards. The 1/T1 and 1/T2 values were determined by the inversion−recovery and the Carr−Purcell−Meiboom−Gill spin echo technique, respectively. To avoid susceptibility corrections of the chemical shifts, a glass sphere fitted into a 10 mm NMR tube was used to contain the samples. ^17O enriched water (10% H2^17O, CortecNet) was added to the solutions to improve sensitivity (circa 1% enrichment). Proton NMRD profiles of the [Mn(3,9-OPC2A)] complex (1.00 mM, pH = 7.4) were recorded in aqueous solution on a Stelar SMARTracer Fast Field Cycling relaxometer (0.01−10 MHz), and a Bruker WP80 NMR electromagnet adapted to variable field measurements (20−80 MHz) and controlled by a SMARTracer PC-NMR console (Stelar s.r.l., Mede, Italy). The temperature was monitored by a VTC91 temperature control unit and maintained by a gas flow. The temperature was determined by previous calibration with a Pt resistance temperature probe. […]

r1^298_20 MHz (20 MHz, 298 K): 3.09 mM⁻¹ s⁻¹ | ER (activation energy of rotation): 14.8 ± 0.6 kJmol^−1 | τv^298 (correlation time of ZFS modulation): 19.3 ± 3.0 ps | q (method proposed by Gale et al.) (hydration number from 17O NMR line widths): 0.97 ± 0.2 | q (hydration number, fixed during the fitting procedure): 1 | τR^298 (rotational correlation time): 40.0 ± 1.1 ps | Δ^2 (square of the zero-field splitting energy): 17.8 ± 3.6 10^18s^−2
Compound: O=C([O-])CN1CCOCCN(CC(=O)[O-])Cc2cccc(n2)C1.[Mn+2] [[Mn(3,9-OPC2A)]]
ΔH^‡ (activation enthalpy of water exchange): 28.5 ± 1.7 kJmol^−1 | ΔS^‡ (activation entropy of water exchange): −1.9 ± 0.8 JK^−1mol^−1 | kex^298 (water exchange rate with bulk solvent): 5.3 ± 0.4 × 10^7 s^−1 | kex^298 (water exchange rate, fit of 17O NMR and NMRD data): 5.3 ± 0.4 10^7s^−1
